From patent publication US7678583B2, “Method of lysis of erythrocytes” (Immunotech, S.A., priority 2000, dated 2010)

Assays:
[1] = system: erythrocytes; assay: Experiment 3: speed of lysis with carbonic anhydrases from different sources in lysis reagent according to Example 1; format: cell-based; conditions: Example 1 reagent, carbonic anhydrase replaced by preparation at 5000 W-A U/l; OD at 700 nm; time to minimum level
Protocol: In a lysis reagent according to Example 1, the component carbonic anhydrase at 50,000 W-A U/I was replaced by preparations of carbonic anhydrase as indicated in the table, each at 5000 W-A U/I. The lysis process was tracked spectrophotometrically (measurement of the OD at 700 nm). The duration of the lysis is determined by the time necessary to achieve a minimum level.

[2] = Experiment 2: conversion of ammonium carbamate into ammonium carbonate, precipitation in 85% of acetone; format: biochemical

CAII, C-2522: carbonic anhydrase II preparation, Sigma, bovine
Speed of lysis at 5000 W-A U/l [1]: 8.51 min

CAI, C-4396: carbonic anhydrase I preparation, Sigma, human
Speed of lysis at 5000 W-A U/l [1]: 5.06 min

CAI, C-5290: carbonic anhydrase I preparation, Sigma, human
Speed of lysis at 5000 W-A U/l [1]: 3.24 min

N.NC(=O)O [100 mM NH2CO2NH4, ammonium carbamate, reference compound]
Duration before complete precipitation in 85% of acetone ([2]; carbonate precipitates and not the carbamate): 240 min

carbonic anhydrase
catalysis of the conversion carbonate / carbamate+H2O (in words) [2]: also catalyses the conversion carbonate
